Experimental data taken from patent US4383113A, “Agricultural sulfonamides” (E. I. Du Pont de Nemours and Company, priority 1981, dated 1983).

Columns and labels:
Experiment in all cases: Test A pre-emergence
Parameters in all cases: key: 0 = no effect, 10 = maximum effect; letter = response symbol
morningglory = type: in vivo, Ipomoea spp.
Excerpt: (§1) The activity of these compounds was discovered in a number of greenhouse and field tests. The ratings are based on a numerical scale extending from 0=no effect, to 10=maximum effect. The accompanying descriptive symbols have the following meanings:
(§2) Seeds of crabgrass (Digitaria spp.), barnyardgrass (Echinochloa crusgalli), wild oats (Avena fatua), cassia (Cassia tora), morningglory (Ipomoea spp.), cocklebur (Xanthium spp.), sorghum, corn, soybean, rice, wheat and nutsedge tubers (Cyperus rotundus) were planted in a growth medium and treated preemergence with a nonphytotoxic solvent solution of the compounds of Table XII. Other batches of seeds and tubers for all of the foregoing weed and crop plants were planted at the same time as controls. The control plantings were untreated; i.e., neither any compound nor any solvent was applied. At the same time, cotton having five leaves (including cotyledonary ones), bush beans with the third trifoliate leaf expanding, crabgrass with two leaves, barnyardgrass with two leaves, wild oats with two leaves, cassia with three leaves (including cotyledonary ones), morningglory with four leaves (including the cotyledonary ones), cocklebur with four leaves (including the cotyledonary ones), sorghum with four leaves, corn with four leaves, soybean with two cotyledonary leaves, rice with three leaves, wheat with one leaf, and nutsedge with three-five leaves were sprayed with a nonphytotoxic solvent solution of the compounds of Table XII. Other groups of all the same weed and crop plants were sprayed with the same nonphytotoxic solvent so as to provide control plants. Preemergence and postemergence treated plants and controls were maintained in a greenhouse for sixteen days, then all treated plants were compared with their respective controls and rated visually for response to treatment.

cocklebur = type: in vivo, Xanthium spp.
Excerpt: as §1, §2

cassia = type: in vivo, Cassia tora
Excerpt: as §1, §2

crabgrass = type: in vivo, Digitaria spp.
Excerpt: as §1, §2

barnyardgrass = type: in vivo, Echinochloa crusgalli
Excerpt: as §1, §2

wild oats = type: in vivo, Avena fatua
Excerpt: as §1, §2

corn = type: in vivo
Excerpt: as §1, §2

sorghum = type: in vivo
Excerpt: as §1, §2

soybean = type: in vivo
Excerpt: as §1, §2

wheat = type: in vivo
Excerpt: as §1, §2

Row | SMILES | response rating (morningglory; 0.4 kg/ha) | response rating (cocklebur; 0.4 kg/ha) [G] | response rating (cassia; 0.4 kg/ha) | response rating (crabgrass; 0.4 kg/ha) | response rating (barnyardgrass; 0.4 kg/ha) [H] | response rating (wild oats; 0.4 kg/ha) | response rating (corn; 0.4 kg/ha) | response rating (sorghum; 0.4 kg/ha) [H] | response rating (soybean; 0.4 kg/ha) [H] | response rating (wheat; 0.4 kg/ha) | response rating (morningglory; 2 kg/ha) [C] | response rating (cocklebur; 2 kg/ha) [G] | response rating (cassia; 2 kg/ha) | response rating (barnyardgrass; 2 kg/ha) [H] | response rating (wild oats; 2 kg/ha) | response rating (corn; 2 kg/ha) [G] | response rating (sorghum; 2 kg/ha) | response rating (soybean; 2 kg/ha) [H] | response rating (wheat; 2 kg/ha) | response rating (crabgrass; 2 kg/ha) [G]
1 | COC(=O)c1ccccc1S(=O)(=O)NC(=O)Nc1nc(C)cc(OC)n1 [drawing 480] | 9G | 9 | 9G | 9H | 9 | 9H | 10H | 9 | 9 | 9H |  |  |  |  |  |  |  |  |  | 
2 | COC(=O)c1ccccc1S(=O)(=O)NC(=O)Nc1nc(OC)cc(OC)n1 [drawing 481] | 9G | 9 | 9G | 9H | 9 | 9H | 9H | 9 |  | 9H |  |  |  |  |  |  |  |  |  | 
3 | COC(=O)c1ccccc1S(=O)(=O)NC(=O)Nc1nnc(C)c(C)n1 [drawing 484] |  |  |  |  |  |  |  |  |  |  | 9 | 9 | 9C | 9 | 9H | 9 | 9H | 9 | 9H | 
4 | COC(=O)c1ccccc1S(=O)(=O)NC(=O)Nc1ncccn1 [drawing 485] |  |  |  |  |  |  |  |  |  |  |  | 9 | 9G |  | 8G | 9 | 9G |  | 8G | 
5 | COc1cc(C)nc(NC(=O)NS(=O)(=O)c2ccccc2C(=O)OCCCl)n1 [drawing 488] | 9C | 9 | 9C |  | 10 |  | 10H | 10 | 9 | 9H |  |  |  |  |  |  |  |  |  | 
6 | COc1nc(C)nc(NC(=O)NS(=O)(=O)c2ccccc2C(=O)OC(C)C)n1 [drawing 492] | 9G | 9 |  |  |  | 9G | 9G |  | 9 | 5G |  |  |  |  |  |  |  |  |  | 
7 | COC(=O)c1cc(Cl)ccc1S(=O)(=O)NC(=O)Nc1nc(OC)cc(OC)n1 [drawing 500] | 9G | 9 |  | 5G | 9 | 9G | 9H | 9 | 9 | 3G |  |  |  |  |  |  |  |  |  | 
8 | CCCCOC(=O)c1ccccc1S(=O)(=O)NC(=O)Nc1nc(OC)cc(OC)n1 [drawing 506] | 9G | 9 | 9G | 8G | 9 | 7G |  |  | 7 | 9G |  | 9 | 9C | 9 | 8G | 9 | 9H | 9 | 9G | 7
9 | CCCCOC(=O)c1ccccc1S(=O)(=O)NC(=O)Nc1nc(C)cc(OC)n1 [drawing 507] | 9G | 9 | 9G | 7G | 9 |  | 9G | 9 | 9 | 9H |  | 9 |  | 9 |  | 9 | 9H | 9 | 9H | 
10 | COc1nc(C)nc(NC(=O)NS(=O)(=O)c2ccccc2C(=O)OC(C)Cc2ccccc2)n1 (centres unmarked) [drawing 524] | 9G | 9 |  |  | 9 | 9H | 9H | 9 | 9 | 9H |  |  |  |  |  |  |  |  |  | 
11 | COc1cc(C)nc(NC(=O)NS(=O)(=O)c2ccccc2C(=O)NC(C)C)n1 [drawing 530] | 9G | 8 | 9G | 9H | 9 |  | 9H | 9 | 9 | 9H |  |  |  |  |  |  |  |  |  | 
12 | COc1cc(C)nc(NC(=O)NS(=O)(=O)c2ccccc2C(=O)N(C)C)n1 [drawing 532] | 9G | 9 | 9G |  | 9 |  | 9H | 9 | 9 | 9H |  |  |  |  |  |  |  |  |  | 
13 | COC(=O)c1ccccc1S(=O)(=O)NC(=O)Nc1nc(OC)cc(OC(C)C(=O)OC)n1 (centres unmarked) [drawing 535] |  |  |  |  |  |  | 10H | 10 | 9 |  |  |  |  |  |  |  |  |  |  | 
14 | CCOCCSc1cc(C)nc(NC(=O)NS(=O)(=O)c2ccccc2C(=O)OC)n1 [drawing 536] | 9G |  |  |  |  |  | 9G | 9 | 9 |  |  |  |  |  |  |  |  |  |  | 
15 | COCCCOc1cc(C)nc(NC(=O)NS(=O)(=O)c2ccccc2C(=O)OC)n1 [drawing 537] |  | 9 | 8G |  |  |  | 9H | 9 | 9 | 9H |  |  |  |  |  |  |  |  |  | 
16 | COC(=O)c1ccccc1S(=O)(=O)NC(=O)Nc1nc(C)nc(N(C)C)n1 [drawing 539] | 9G | 9 | 8G |  |  |  | 9G | 9 | 9 | 9H |  |  |  |  |  |  |  |  |  | 
17 | COCCc1nc(NC(=O)NS(=O)(=O)c2ccccc2C(=O)OC)nc(OC)n1 [drawing 541] | 9G | 9 |  |  |  |  | 10H | 9 | 9 | 6G |  |  |  |  |  |  |  |  |  | 
18 | COc1cc(C)nc(NC(=O)NS(=O)(=O)c2ccccc2C(=O)SCc2ccccc2)n1 [drawing 542] | 9G | 8 | 9G |  |  |  | 9G | 9 | 9 | 9H |  |  |  |  |  |  |  |  |  | 
19 | COc1cc(C)nc(NC(=O)NS(=O)(=O)c2ccccc2C(=O)SC2CCCCC2)n1 [drawing 543] | 9H | 9 | 9G |  | 9 |  | 9G | 9 | 9 | 9H |  |  |  |  |  |  |  |  |  | 
